Experimental data reported in US20260297081A1, “COMPOUNDS AND METHODS OF TREATING CANCERS” (Cullgen Inc., priority 2023, published 2026).

Key:
[1] = molecular target: CDK4 (Homo sapiens, UniProt P11802+Q16531); assay: CDK4 percentage degradation in Calu-1 cells (Table 6); format: cell-based; design: Cells that express cyclin D1-3 and CDK4/6 proteins were treated with heterobifunctional compounds; endogenous in cells; host or cells: Calu-1; details: 16 hours; for inhibition at 0.04 µM: 40 nM; for inhibition at 0.2 µM: 200 nM
Sequence of CDK4 (P11802 2-303 limits assumed): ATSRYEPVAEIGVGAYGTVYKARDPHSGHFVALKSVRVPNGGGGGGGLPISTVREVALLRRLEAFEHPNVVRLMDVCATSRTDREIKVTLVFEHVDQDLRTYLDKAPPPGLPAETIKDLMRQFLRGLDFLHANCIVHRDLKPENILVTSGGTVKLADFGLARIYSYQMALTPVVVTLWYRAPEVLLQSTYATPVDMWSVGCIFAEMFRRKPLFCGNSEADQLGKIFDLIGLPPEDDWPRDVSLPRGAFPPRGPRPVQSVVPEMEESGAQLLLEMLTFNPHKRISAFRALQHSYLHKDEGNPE
Sequence of CDK4 (P24385 whole entry partner): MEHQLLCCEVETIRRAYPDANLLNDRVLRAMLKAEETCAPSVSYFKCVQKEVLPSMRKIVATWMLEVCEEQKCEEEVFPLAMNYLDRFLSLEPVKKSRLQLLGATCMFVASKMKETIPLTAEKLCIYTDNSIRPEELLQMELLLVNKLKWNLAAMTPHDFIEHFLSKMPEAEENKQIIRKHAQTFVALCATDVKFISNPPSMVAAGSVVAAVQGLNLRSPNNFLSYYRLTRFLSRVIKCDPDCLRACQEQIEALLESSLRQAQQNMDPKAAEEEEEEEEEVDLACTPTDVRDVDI
Sequence of CDK4 (Q16531 2-1140 limits assumed): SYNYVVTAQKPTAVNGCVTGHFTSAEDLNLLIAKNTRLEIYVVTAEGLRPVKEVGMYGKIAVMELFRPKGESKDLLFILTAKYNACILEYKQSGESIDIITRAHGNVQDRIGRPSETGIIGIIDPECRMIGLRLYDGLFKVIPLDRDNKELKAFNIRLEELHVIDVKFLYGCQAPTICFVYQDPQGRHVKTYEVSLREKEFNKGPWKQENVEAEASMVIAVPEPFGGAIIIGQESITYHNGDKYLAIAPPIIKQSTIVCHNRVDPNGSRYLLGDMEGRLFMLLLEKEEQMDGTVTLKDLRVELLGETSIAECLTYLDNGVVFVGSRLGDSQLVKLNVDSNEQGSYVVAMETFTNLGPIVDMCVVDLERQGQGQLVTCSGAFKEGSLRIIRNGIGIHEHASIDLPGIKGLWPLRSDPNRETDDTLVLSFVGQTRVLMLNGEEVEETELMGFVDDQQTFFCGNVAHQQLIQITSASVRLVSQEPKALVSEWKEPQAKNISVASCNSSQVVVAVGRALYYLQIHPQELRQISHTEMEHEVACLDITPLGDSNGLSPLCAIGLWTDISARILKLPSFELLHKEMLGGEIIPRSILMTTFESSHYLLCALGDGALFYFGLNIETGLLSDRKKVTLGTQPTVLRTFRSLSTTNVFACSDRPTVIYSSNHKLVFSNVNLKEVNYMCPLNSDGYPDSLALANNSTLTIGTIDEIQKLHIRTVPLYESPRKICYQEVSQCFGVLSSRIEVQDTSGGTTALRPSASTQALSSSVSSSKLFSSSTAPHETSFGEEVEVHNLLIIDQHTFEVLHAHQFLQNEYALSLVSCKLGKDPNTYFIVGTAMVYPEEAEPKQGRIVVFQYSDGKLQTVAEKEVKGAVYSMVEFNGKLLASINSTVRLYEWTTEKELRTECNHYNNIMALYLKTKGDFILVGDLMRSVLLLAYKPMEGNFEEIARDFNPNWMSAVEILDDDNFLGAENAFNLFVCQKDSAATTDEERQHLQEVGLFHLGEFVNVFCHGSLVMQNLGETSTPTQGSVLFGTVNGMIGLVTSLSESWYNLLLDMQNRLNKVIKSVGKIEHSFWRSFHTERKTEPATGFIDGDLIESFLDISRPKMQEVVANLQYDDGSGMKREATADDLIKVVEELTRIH
Method in brief: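 Percentage degradation of Cyclin D1 and CDK4 derived from densitometry of ECL Western blots on lysates of Calu-1 cells. Treatment was 16 h with compound at either 40 nM or 200 nM.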

[2] = test system: MCF7 cells; assay: Anti-proliferation (viability) of MCF7 cells (Table 7, FIG. 2B); format: cell-based; details: Homo sapiens, MCF7, MCF7 cells, 3-6 days, 10-point serial dilution; read-out: GI IC50 in MCF-7

SMILES	inhibition at 0.04 µM [1] [%]	inhibition at 0.2 µM [1] [%]	IC50 [2] [nM]
CNc1ccc(C(=O)Nc2ncc(C)o2)c(NC2CC3(CC(NC(=O)CN4CCN(c5ccc(Nc6ncc7c(C)c(C(C)=O)c(=O)n(C8CCCC8)c7n6)nc5)CC4)C3)C2)n1 (centres unmarked) [CPD-246, 2-((6-(2-(4-(6-((6-acetyl-8-cyclopentyl-5-methyl-7-oxo-7,8-dihydropyrido[2,3-d]pyrimidin-2-yl)amino)pyridin-3-yl)piperazin-1-yl)acetamido)spiro[3.3]heptan-2-yl)amino)-6-(methylamino)-N-(5-methyloxazol-2-yl)nicotinamide]	50 to 80	50 to 80	
CNc1ccc(C(=O)Nc2nc(C)c(C)o2)c(NC2CC3(CC(NC(=O)CN4CCN(c5ccc(Nc6ncc7c(C)c(C(C)=O)c(=O)n(C8CCCC8)c7n6)nc5)CC4)C3)C2)n1 (centres unmarked) [CPD-247, 2-((6-(2-(4-(6-((6-acetyl-8-cyclopentyl-5-methyl-7-oxo-7,8-dihydropyrido[2,3-d]pyrimidin-2-yl)amino)pyridin-3-yl)piperazin-1-yl)acetamido)spiro[3.3]heptan-2-yl)amino)-N-(4,5-dimethyloxazol-2-yl)-6-(methylamino)nicotinamide]	50 to 80	50 to 80	
[2H]C([2H])([2H])Nc1ccc(C(=O)Nc2ccc(N(C)C)nn2)c(NC2CN(C(=O)C(F)(F)CN3CCN(c4ccc(Nc5ncc6c(C)c(C(C)=O)c(=O)n(C7CCCC7)c6n5)nc4)CC3)C2)n1 [CPD-248, 2-((1-(3-(4-(6-((6-acetyl-8-cyclopentyl-5-methyl-7-oxo-7,8-dihydropyrido[2,3-d]pyrimidin-2-yl)amino)pyridin-3-yl)piperazin-1-yl)-2,2-difluoropropanoyl)azetidin-3-yl)amino)-N-(6-(dimethylamino)pyridazin-3-yl)-6-((methyl-d3)amino)nicotinamide]	< 30	< 30	
[2H]C([2H])([2H])Nc1ccc(C(=O)Nc2ccc(N(C)C)nn2)c(NC2CC3(C2)CN(C(=O)C(F)(F)CN2CCN(c4ccc(Nc5ncc6c(C)c(C(C)=O)c(=O)n(C7CCCC7)c6n5)nc4)CC2)C3)n1 [CPD-249, 2-((2-(3-(4-(6-((6-acetyl-8-cyclopentyl-5-methyl-7-oxo-7,8-dihydropyrido[2,3-d]pyrimidin-2-yl)amino)pyridin-3-yl)piperazin-1-yl)-2,2-difluoropropanoyl)-2-azaspiro[3.3]heptan-6-yl)amino)-N-(6-(dimethylamino)pyridazin-3-yl)-6-((methyl-d3)amino)nicotinamide]	50 to 80	50 to 80	
CC(=O)c1c(C)c2cnc(Nc3ccc(N4CCN(CC(=O)NCCCCCNc5nc6[nH]ccc6cc5C(=O)Nc5ccc(N(C)C)nn5)CC4)cn3)nc2n(C2CCCC2)c1=O [CPD-251, 6-((5-(2-(4-(6-((6-acetyl-8-cyclopentyl-5-methyl-7-oxo-7,8-dihydropyrido[2,3-d]pyrimidin-2-yl)amino)pyridin-3-yl)piperazin-1-yl)acetamido)pentyl)amino)-N-(6-(dimethylamino)pyridazin-3-yl)-1H-pyrrolo[2,3-b]pyridine-5-carboxamide]			> 100
CC(=O)c1c(C)c2cnc(Nc3ccc(N4CCN(C(=O)NCCC5CC(Nc6cc(Cl)ccc6C(=O)Nc6ccc(C)c(C7CC7)n6)C5)CC4)cn3)nc2n(C2CCCC2)c1=O (centres unmarked) [CPD-256, 4-(6-((6-Acetyl-8-cyclopentyl-5-methyl-7-oxo-7,8-dihydropyrido[2,3-d]pyrimidin-2-yl)amino)pyridin-3-yl)-N-(2-(3-((5-chloro-2-((6-cyclopropyl-5-methylpyridin-2-yl)carbamoyl)phenyl)amino)cyclobutyl)ethyl)piperazine-1-carboxamide]	< 30	< 30	
CC(=O)c1c(C)c2cnc(Nc3ccc(N4CCN(CC(=O)NC5CC6(C5)CC(Nc5cc(Cl)ccc5C(=O)Nc5cc(C)on5)C6)CC4)cn3)nc2n(C2CCCC2)c1=O (centres unmarked) [CPD-259, 2-((6-(2-(4-(6-((6-acetyl-8-cyclopentyl-5-methyl-7-oxo-7,8-dihydropyrido[2,3-d]pyrimidin-2-yl)amino)pyridin-3-yl)piperazin-1-yl)acetamido)spiro[3.3]heptan-2-yl)amino)-4-chloro-N-(5-methylisoxazol-3-yl)benzamide]	< 30	30 to 50	
CNc1ccc(C(=O)Nc2ccc(N(C)C)nn2)c(NC2CC3(C2)CN(C(=O)CCN2CCN(c4ccc(Nc5ncc6c(C)c(C(C)=O)c(=O)n(C7CCCC7)c6n5)nc4)CC2(C)C)C3)n1 [CPD-267, 2-((2-(3-(4-(6-((6-acetyl-8-cyclopentyl-5-methyl-7-oxo-7,8-dihydropyrido[2,3-d]pyrimidin-2-yl)amino)pyridin-3-yl)-2,2-dimethylpiperazin-1-yl)propanoyl)-2-azaspiro[3.3]heptan-6-yl)amino)-N-(6-(dimethylamino)pyridazin-3-yl)-6-(methylamino)nicotinamide]			< 50
CNc1ccc(C(=O)Nc2ccc(N(C)C)nn2)c(NC2CC3(C2)CN(C(=O)CN2CCN(Cc4ccc(Nc5ncc6c(C)c(C(C)=O)c(=O)n(C7CCCC7)c6n5)nc4)CC2)C3)n1 [CPD-268, 2-((2-(2-(4-((6-((6-acetyl-8-cyclopentyl-5-methyl-7-oxo-7,8-dihydropyrido[2,3-d]pyrimidin-2-yl)amino)pyridin-3-yl)methyl)piperazin-1-yl)acetyl)-2-azaspiro[3.3]heptan-6-yl)amino)-N-(6-(dimethylamino)pyridazin-3-yl)-6-(methylamino)nicotinamide]			< 50

More lines, now with the values ahead:

inhibition at 0.04 µM [1] [%]	inhibition at 0.2 µM [1] [%]	IC50 [2] [nM]	SMILES
< 30	50 to 80		CC(=O)c1c(C)c2cnc(Nc3ccc(N4CCN(CC(=O)NCCC5CC(Nc6cc(Cl)ccc6C(=O)Nc6ccc(C)c(C7CC7)n6)C5)CC4)cn3)nc2n(C2CCCC2)c1=O (centres unmarked) [CPD-255, 2-((3-(2-(2-(4-(6-((6-Acetyl-8-cyclopentyl-5-methyl-7-oxo-7,8-dihydropyrido[2,3-d]pyrimidin-2-yl)amino)pyridin-3-yl)piperazin-1-yl)acetamido)ethyl)cyclobutyl)amino)-4-chloro-N-(6-cyclopropyl-5-methylpyridin-2-yl)benzamide]
< 30	30 to 50		CC(=O)c1c(C)c2cnc(Nc3ccc(N4CCN(CC(=O)NCCC5CC(Nc6cc(Cl)ccc6C(=O)Nc6ccc(N(C)C)nn6)C5)CC4)cn3)nc2n(C2CCCC2)c1=O (centres unmarked) [CPD-257, 2-((3-(2-(2-(4-(6-((6-Acetyl-8-cyclopentyl-5-methyl-7-oxo-7,8-dihydropyrido[2,3-d]pyrimidin-2-yl)amino)pyridin-3-yl)piperazin-1-yl)acetamido)ethyl)cyclobutyl)amino)-4-chloro-N-(6-(dimethylamino)pyridazin-3-yl)benzamide]
30 to 50	50 to 80		CC(=O)c1c(C)c2cnc(Nc3ccc(N4CCN(CC(=O)NCCC5CC(Nc6cc(F)ccc6C(=O)Nc6ccc(N(C)C)nn6)C5)CC4)cn3)nc2n(C2CCCC2)c1=O (centres unmarked) [CPD-258, 2-((3-(2-(2-(4-(6-((6-Acetyl-8-cyclopentyl-5-methyl-7-oxo-7,8-dihydropyrido[2,3-d]pyrimidin-2-yl)amino)pyridin-3-yl)piperazin-1-yl)acetamido)ethyl)cyclobutyl)amino)-N-(6-(dimethylamino)pyridazin-3-yl)-4-fluorobenzamide]
		> 100	CC(=O)c1c(C)c2cnc(Nc3ccc(N4CCN(CC(=O)NC5CC6(C5)CC(Nc5cc(F)ccc5C(=O)Nc5cc(C)on5)C6)CC4)cn3)nc2n(C2CCCC2)c1=O (centres unmarked) [CPD-260, 2-((6-(2-(4-(6-((6-acetyl-8-cyclopentyl-5-methyl-7-oxo-7,8-dihydropyrido[2,3-d]pyrimidin-2-yl)amino)pyridin-3-yl)piperazin-1-yl)acetamido)spiro[3.3]heptan-2-yl)amino)-4-fluoro-N-(5-methylisoxazol-3-yl)benzamide]
		> 100	CC(=O)c1c(C)c2cnc(Nc3ccc(N4CCN(CC(=O)NCC5CC(Nc6cc(C(F)(F)F)ccc6C(=O)Nc6cc(C)n(C)n6)C5)CC4)cn3)nc2n(C2CCCC2)c1=O (centres unmarked) [CPD-261, 2-((3-((2-(4-(6-((6-acetyl-8-cyclopentyl-5-methyl-7-oxo-7,8-dihydropyrido[2,3-d]pyrimidin-2-yl)amino)pyridin-3-yl)piperazin-1-yl)acetamido)methyl)cyclobutyl)amino)-N-(1,5-dimethyl-1H-pyrazol-3-yl)-4-(trifluoromethyl)benzamide]
		> 100	CC(=O)c1c(C)c2cnc(Nc3ccc(N4CCN(CC(=O)NCC5CC(Nc6ccc(C(F)(F)F)cc6C(=O)Nc6cc(C)n(C)n6)C5)CC4)cn3)nc2n(C2CCCC2)c1=O (centres unmarked) [CPD-262, 2-((3-((2-(4-(6-((6-acetyl-8-cyclopentyl-5-methyl-7-oxo-7,8-dihydropyrido[2,3-d]pyrimidin-2-yl)amino)pyridin-3-yl)piperazin-1-yl)acetamido)methyl)cyclobutyl)amino)-N-(1,5-dimethyl-1H-pyrazol-3-yl)-5-(trifluoromethyl)benzamide]
		> 100	CC(=O)c1c(C)c2cnc(Nc3ccc(N4CCN(CC(=O)NCC5CC(Nc6ccc(F)cc6C(=O)Nc6cc(C)n(C)n6)C5)CC4)cn3)nc2n(C2CCCC2)c1=O (centres unmarked) [CPD-263, 2-((3-((2-(4-(6-((6-acetyl-8-cyclopentyl-5-methyl-7-oxo-7,8-dihydropyrido[2,3-d]pyrimidin-2-yl)amino)pyridin-3-yl)piperazin-1-yl)acetamido)methyl)cyclobutyl)amino)-N-(1,5-dimethyl-1H-pyrazol-3-yl)-5-fluorobenzamide]
		> 100	CC(=O)c1c(C)c2cnc(Nc3ccc(N4CCN(CC(=O)NCC5CC(Nc6cc(F)ccc6C(=O)Nc6cc(C)n(C)n6)C5)CC4)cn3)nc2n(C2CCCC2)c1=O (centres unmarked) [CPD-264, 2-((3-((2-(4-(6-((6-acetyl-8-cyclopentyl-5-methyl-7-oxo-7,8-dihydropyrido[2,3-d]pyrimidin-2-yl)amino)pyridin-3-yl)piperazin-1-yl)acetamido)methyl)cyclobutyl)amino)-N-(1,5-dimethyl-1H-pyrazol-3-yl)-4-fluorobenzamide]
